Here are results for 1 molecule from US9492789B2, “Draw solute for forward osmosis, forward osmosis water treatment device, and forward osmosis method for water treatment” (Samsung Electronics Co., Ltd., priority 2012, dated 2016).

Series [1] can be described thus: Osmotic pressure analysis of osmosis draw solution by freezing point depression. It is filed as physicochemical. The settings on record: draw solution concentration 10 wt %. The method, then: Osmosis draw solutions having the various concentrations shown in the following Table 1 are prepared, and the osmotic pressure of the osmosis draw solution including the NIPAam oligomer prepared from Examples 1 to 4 is analyzed using the osmotic pressure measurer according to a freezing point depression.

Series [2] can be described thus: Solubility change of 10 wt % osmosis draw solution on slow heating (LCST, separation temperature, reversibility). Format: physicochemical. The source says: Each osmosis draw solution including the compounds of Examples 1 to 5 and Comparative Examples 1 and 2 at a concentration of 10 wt % is slowly heated from room temperature, and the solubility change of the solution is observed according to the temperature. The term “lower critical solution temperature (LCST)” indicates the temperature at which the solution begins to suddenly turn opaque, and the term “separation temperature” indicates the temperature in which the solution begins to be precipitated.

`C=CC(=O)NC(C)C` [Comparative Example 1, N-isopropylacrylamide]: in series [1], the “Osmotic pressure, Osmol concentration” value amounted to 738 mOsmol/kg and the “Osmotic pressure, atm (equivalents)” value is 18 atm. Besides, in series [2] (10 wt % solution heated from room temperature, temperature at which solution begins to suddenly turn opaque), the LCST is 36-37 °C. For the same molecule, the Reversibility entry in series [2] (@ 25° C.) is on record as “◯”.
